Among the test systems are RXF 393 renal; SNB-75 CNS; HT29 colon; MOLT-4 leukemia; EKVX NSCLC; MDA-MB-435; CCRF-CEM leukemia; TK-10 renal; NCI-H23 lung; SK-MEL-2 melanoma; PC-3 prostate; HOP-62 NSCLC; NCI-H522 lung; IGROV1 ovarian; OVCAR-3 ovarian; NCI-H226 lung; CAKI-1 renal; MALME-3M melanoma; HOP-92 NSCLC.
Assay in all cases: DTP human tumour cell line panel, 48 h

From PubChem BioAssay (NCI) come the findings set out here.

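1) Cells in 96-well plates. 2) Compound, 48 h, 5 concentrations. 3) Linear interpolation between surrounding doses. 4) Unreached endpoint = highest concentration. TGI denotes the concentration required for complete inhibition of growth.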

With `CN1N=C(c2ccncc2)OC1c1cccc(F)c1` (stereo not drawn), the TGI in the experiment on RXF 393 renal, with SNB-75 CNS, with HT29 colon, in the experiment with MOLT-4 leukemia, in the experiment with EKVX NSCLC and in the experiment on MDA-MB-435 was > 100 µM each time. The TGI with CCRF-CEM leukemia, with TK-10 renal, with NCI-H23 lung, with SK-MEL-2 melanoma, in the experiment with PC-3 prostate and in the experiment with HOP-62 NSCLC was > 100 µM each time. The TGI with NCI-H522 lung, in the experiment with IGROV1 ovarian, with OVCAR-3 ovarian and with NCI-H226 lung was > 100 µM in each case.

In the case of `COc1cc2ccnc(C#N)c2cc1OCc1ccccc1`, the TGI (commonly the concentration giving total growth inhibition) is 66.3 µM in the experiment on SNB-75 CNS; > 100 µM with HT29 colon; > 100 µM in the experiment on MOLT-4 leukemia; > 100 µM in the experiment on EKVX NSCLC; > 100 µM in the experiment with CCRF-CEM leukemia; > 100 µM with TK-10 renal. The TGI with CAKI-1 renal, with NCI-H23 lung, with SK-MEL-2 melanoma, in the experiment with MALME-3M melanoma, in the experiment on HOP-62 NSCLC and with NCI-H522 lung was > 100 µM in each case. In addition, the TGI with OVCAR-3 ovarian is > 100 µM.

For `O=C(O)C12C3CCC(C3)C1(C(=O)O)C1CCC2C1` (stereo not drawn), the TGI in the experiment on RXF 393 renal, with SNB-75 CNS, in the experiment with HT29 colon, in the experiment on MOLT-4 leukemia, in the experiment with EKVX NSCLC and in the experiment on HOP-92 NSCLC was > 100 µM in each case. In addition, the TGI is 95 µM in the experiment with CCRF-CEM leukemia; > 100 µM with TK-10 renal; > 100 µM with CAKI-1 renal; > 100 µM in the experiment on NCI-H23 lung; > 100 µM in the experiment on SK-MEL-2 melanoma; > 100 µM with MALME-3M melanoma. For the same compound, the TGI is > 100 µM with HOP-62 NSCLC; 54.9 µM with NCI-H522 lung; > 100 µM in the experiment on IGROV1 ovarian; > 100 µM in the experiment with OVCAR-3 ovarian; > 100 µM in the experiment on NCI-H226 lung.

With `N#CCCC(C#N)(C#N)CCC#N`, the TGI in the experiment with HT29 colon, with MOLT-4 leukemia, in the experiment on EKVX NSCLC, with TK-10 renal, in the experiment with NCI-H23 lung and in the experiment on MALME-3M melanoma was > 100 µM throughout. Also, the TGI in the experiment with HOP-62 NSCLC, with NCI-H522 lung, with IGROV1 ovarian, with OVCAR-3 ovarian and in the experiment on NCI-H226 lung was > 100 µM throughout.

On to `CN1CCCS/C1=C1/SC(=S)N(c2ccccc2)C1=O`, for which the TGI in the experiment on RXF 393 renal, in the experiment with SNB-75 CNS, with HT29 colon, in the experiment with MOLT-4 leukemia, in the experiment with EKVX NSCLC and in the experiment with HOP-92 NSCLC was > 100 µM in each case. The TGI in the experiment with CCRF-CEM leukemia, with TK-10 renal, in the experiment with CAKI-1 renal, in the experiment on NCI-H23 lung, in the experiment on SK-MEL-2 melanoma and with MALME-3M melanoma was > 100 µM each time. Moreover, the TGI in the experiment with HOP-62 NSCLC, with NCI-H522 lung, with IGROV1 ovarian, in the experiment on OVCAR-3 ovarian and in the experiment on NCI-H226 lung was > 100 µM throughout.

`O=c1[nH]c(=O)n([C@H]2C[C@@H](CO)[C@@H](O)C2)cc1I`: the TGI with SNB-75 CNS, with HT29 colon, in the experiment with MOLT-4 leukemia, with EKVX NSCLC, in the experiment with HOP-92 NSCLC and in the experiment with CCRF-CEM leukemia was > 100 µM each time. The TGI with TK-10 renal, in the experiment on CAKI-1 renal, with NCI-H23 lung, with SK-MEL-2 melanoma, with MALME-3M melanoma and in the experiment on HOP-62 NSCLC was > 100 µM in each case. For the same compound, the TGI in the experiment on NCI-H522 lung, with IGROV1 ovarian, with OVCAR-3 ovarian and in the experiment with NCI-H226 lung was > 100 µM in each case.

As to `COc1ccc(S(=O)(=O)N/N=C(\C)CN2C(=O)c3ccccc3C2=O)cc1OC`, the TGI in the experiment with SNB-75 CNS, in the experiment with HT29 colon, with MOLT-4 leukemia, in the experiment with EKVX NSCLC, in the experiment on HOP-92 NSCLC and with CCRF-CEM leukemia was > 100 µM throughout. In addition, the TGI in the experiment with TK-10 renal, in the experiment on CAKI-1 renal, in the experiment on NCI-H23 lung, in the experiment on SK-MEL-2 melanoma, in the experiment on MALME-3M melanoma and in the experiment with HOP-62 NSCLC was > 100 µM throughout. Further, the TGI in the experiment with NCI-H522 lung, in the experiment on IGROV1 ovarian, in the experiment on OVCAR-3 ovarian and with NCI-H226 lung was > 100 µM in each case.

As for `N#Cc1ccc(C2OCC3CC=CCC3CO2)cc1` (stereo not drawn), the TGI in the experiment on RXF 393 renal, with SNB-75 CNS, in the experiment with HT29 colon, in the experiment on MOLT-4 leukemia, in the experiment on EKVX NSCLC and in the experiment with CCRF-CEM leukemia was > 100 µM in each case. Further, the TGI in the experiment with CAKI-1 renal, in the experiment on NCI-H23 lung, with SK-MEL-2 melanoma, in the experiment with MALME-3M melanoma, with HOP-62 NSCLC and in the experiment on NCI-H522 lung was > 100 µM each time. For the same compound, the TGI in the experiment with IGROV1 ovarian, in the experiment on OVCAR-3 ovarian and in the experiment on NCI-H226 lung was > 100 µM throughout.

In the case of `O=C1C(Cl)C(c2ccc(O)cc2)N1n1cnc2ccccc2c1=O` (stereo not drawn), the TGI with RXF 393 renal is 35.7 µM; in the experiment with SNB-75 CNS, > 100 µM; in the experiment on HT29 colon, > 68.8 µM; in the experiment with MOLT-4 leukemia, 93.4 µM; with EKVX NSCLC, > 100 µM; in the experiment with HOP-92 NSCLC it was > 100 µM. Also, the TGI in the experiment with CCRF-CEM leukemia was > 100 µM; in the experiment with TK-10 renal, > 100 µM; with CAKI-1 renal, > 60.3 µM; with NCI-H23 lung it was > 96.3 µM; in the experiment with SK-MEL-2 melanoma, > 63.8 µM; in the experiment on MALME-3M melanoma it was > 83.9 µM. The total growth inhibition concentration (TGI) with HOP-62 NSCLC was > 100 µM; in the experiment on NCI-H522 lung, 32.6 µM; with IGROV1 ovarian, > 100 µM; in the experiment on OVCAR-3 ovarian it was > 90.1 µM; in the experiment with NCI-H226 lung, > 100 µM.
